Measured values as given in patent publication US20150284385A1, “CERTAIN DIPEPTIDYL PEPTIDASE INHIBITORS” (SHANGHAI FOCHON PHARMACEUTICAL CO LTD, priority 2012, published 2015).
Read-outs that look alike come from different tables or passages of the source. Blank lines part the entries; values can stand above or below the compound they belong to.

Assays:
Recombinant human DPP-IV = Recombinant human DPP-IV (Homo sapiens, UniProt P27487); assay: DPP-IV assay in vitro (H-Ala-Pro-AFC fluorescence); assay type: biochemical; details: 30 min pre-incubation, H-Ala-Pro-AFC 50 μM
Chain of Recombinant human DPP-IV (P27487 whole entry): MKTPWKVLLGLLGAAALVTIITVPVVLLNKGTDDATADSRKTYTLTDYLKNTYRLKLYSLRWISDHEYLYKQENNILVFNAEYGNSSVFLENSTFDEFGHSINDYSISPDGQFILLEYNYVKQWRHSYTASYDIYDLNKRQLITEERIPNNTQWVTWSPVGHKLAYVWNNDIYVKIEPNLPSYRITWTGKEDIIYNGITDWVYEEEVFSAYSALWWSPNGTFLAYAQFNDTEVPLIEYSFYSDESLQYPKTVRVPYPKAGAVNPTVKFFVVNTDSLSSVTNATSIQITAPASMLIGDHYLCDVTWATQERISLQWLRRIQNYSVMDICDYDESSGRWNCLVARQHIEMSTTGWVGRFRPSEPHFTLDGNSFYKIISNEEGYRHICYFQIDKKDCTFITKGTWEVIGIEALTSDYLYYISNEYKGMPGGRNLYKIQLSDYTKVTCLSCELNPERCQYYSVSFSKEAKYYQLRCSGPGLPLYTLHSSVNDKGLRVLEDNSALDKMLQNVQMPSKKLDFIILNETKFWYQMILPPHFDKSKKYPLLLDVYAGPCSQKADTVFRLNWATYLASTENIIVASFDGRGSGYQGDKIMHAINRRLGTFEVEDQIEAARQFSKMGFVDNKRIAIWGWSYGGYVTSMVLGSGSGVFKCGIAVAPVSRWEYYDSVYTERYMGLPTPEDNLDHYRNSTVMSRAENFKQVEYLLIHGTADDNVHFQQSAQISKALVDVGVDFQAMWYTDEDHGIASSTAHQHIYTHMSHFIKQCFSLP
Method: DPP-IV Assay Solutions of test compounds in varying concentrations (10^−5 mol/L, 10^−6 mol/L, 10^−7 mol/L, 10^−8 mol/L, 10^−9 mol/L, 10^−10 mol/L, 10^−11 mol/L, and 10^−12 mol/L) were prepared in dimethyl sulfoxide (DMSO) and then diluted into assay buffer comprising: 10 mM Tris-HCl pH 8.0, 0.2 M NaCl, and 0.1% BSA. Recombinant human DPP-IV (7.8 ng/ml final concentration) was added to the dilutions and pre-incubated for 30 mins at room temperature before the reaction was initiated with H-Ala-Pro-AFC (50 μM final concentration). The total volume of the reaction mixture was 100 μl.
Inhibition constants (IC50) were calculated by GraphPad Prism.

DPP-4 = molecular target: T1, DPP-4 (Mus musculus, UniProt P28843); assay: Plasma DPP-4 activity in mice after oral dosing; assay type: in vivo, ICR mice; details: read-out: DPP-4 Relative activity %; for activity at 1 mg/kg: oral 1 mg/kg; for activity at 3 mg/kg: mice plasma, oral 3 mg/kg
T1 construct: Blood sample was processed to obtain plasma; from tissue; host or cells: plasma of male ICR mice
T1 sequence (P28843 37-760 limits assumed): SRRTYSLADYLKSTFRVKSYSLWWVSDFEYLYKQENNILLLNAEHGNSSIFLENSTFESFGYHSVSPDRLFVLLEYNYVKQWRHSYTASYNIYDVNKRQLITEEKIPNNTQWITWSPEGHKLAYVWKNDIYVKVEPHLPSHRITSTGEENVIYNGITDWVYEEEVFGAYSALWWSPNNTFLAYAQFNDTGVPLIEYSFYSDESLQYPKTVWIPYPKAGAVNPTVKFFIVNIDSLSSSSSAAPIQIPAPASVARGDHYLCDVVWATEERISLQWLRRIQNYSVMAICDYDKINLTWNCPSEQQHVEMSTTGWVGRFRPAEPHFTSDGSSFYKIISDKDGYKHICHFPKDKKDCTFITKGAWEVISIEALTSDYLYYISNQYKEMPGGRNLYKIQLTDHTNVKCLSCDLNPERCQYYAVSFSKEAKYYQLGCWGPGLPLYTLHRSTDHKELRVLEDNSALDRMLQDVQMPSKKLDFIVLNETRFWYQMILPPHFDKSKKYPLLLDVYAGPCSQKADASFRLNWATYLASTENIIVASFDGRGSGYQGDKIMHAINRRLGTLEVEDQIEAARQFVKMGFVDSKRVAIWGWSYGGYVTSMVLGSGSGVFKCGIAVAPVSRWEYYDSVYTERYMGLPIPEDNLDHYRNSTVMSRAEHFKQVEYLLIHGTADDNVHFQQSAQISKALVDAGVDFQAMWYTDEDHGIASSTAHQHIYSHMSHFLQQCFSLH
Method: Some of the exemplary compounds were tested in mice to assess inhibition of DPP-4 activity via plasma DPP-4 activity. Male ICR mice (25-30 g) were used for this study. All the mice were fasted at least 3 hours before study. Mice (n=6/group) received vehicle or at least one of the exemplary compounds by oral gavage. The dosing solutions were 0.15 mg/ml for the 3 mg/kg. Dosing volume was 20 mL/kg of body weight for all doses. The vehicle was distilled water. […] Blood sample was processed to obtain plasma (2000 g, 5 min, 4° C.) within 15 min after sampling.
Plasma was collected and tested by fluoremetry. Before the testing, 80 mM MgCl2 buffer was added into the 5 uL serum samples and pre-incubation for 5 minutes at room temperature, then […] of 0.1 mM substrate Gly-Pro-AMC and 20 μL of buffer were added into them. The fluorescence of the mixture was measured every 3 minutes after mixing (excitation at 380 nm; emission at 460 nm). After 6 times of measurements, a time-fluorescence cure was obtained. The slope of the curve would be the activity of DPP-4 in serum. The DPP-4 activity before administration was 100%. The relative activity of DPP-4 in serum was calculated using the formula below:
Relative DPP-4activity=DPP-4activity after dosing/DPP-4activity before dosing×100%.

[1] = Table 4 Test 1, mice plasma, 1 h after dosing
[2] = Table 4 Test 1, mice plasma, 2 h after dosing
[3] = Table 4 Test 1, mice plasma, 4 h after dosing
[4] = Table 4 Test 1, mice plasma, 6 h after dosing
[5] = Table 4 Test 1, mice plasma, 9 h after dosing

IC50 (Recombinant human DPP-IV): 1.9 nM | activity at 1 mg/kg (DPP-4; Table 4 Test 2, mice plasma, 1 h after dosing): 11.5 ± 1.8% | activity at 1 mg/kg (DPP-4; Table 4 Test 2, mice plasma, 2 h after dosing): 9 ± 1.3% | activity at 1 mg/kg (DPP-4; Table 4 Test 2, mice plasma, 4 h after dosing): 10.2 ± 1.8% | activity at 1 mg/kg (DPP-4; Table 4 Test 2, mice plasma, 6 h after dosing): 10.4 ± 1.8% | activity at 1 mg/kg (DPP-4; Table 4 Test 2, mice plasma, 9 h after dosing): 11.6 ± 1.6% | activity at 3 mg/kg (DPP-4; 1 h after dosing): 24.4 ± 2.8% | activity at 3 mg/kg (DPP-4; 2 h after dosing): 21.7 ± 1.7% | activity at 3 mg/kg (DPP-4; 3 h after dosing): 20.4 ± 2% | activity at 3 mg/kg (DPP-4; 5 h after dosing): 28.3 ± 2.3%
Structure (SMILES): Cc1nc(-c2ccn3c4c(nc3c2)C[C@H](c2cc(F)c(F)cc2F)[C@@H](N)C4)no1 [Example 4, (7R,8S)-3-(5-Methyl-1,2,4-oxadiazol-3-yl)-7-(2,4,5-trifluorophenyl)-6,7,8,9-tetrahydrobenzo[4,5]imidazo[1,2-a]pyridin-8-amine]

IC50 (Recombinant human DPP-IV): 1.9 nM | activity at 1 mg/kg (DPP-4; [1]): 16.9 ± 1.4% | activity at 1 mg/kg (DPP-4; [2]): 15.9 ± 1.9% | activity at 1 mg/kg (DPP-4; [3]): 15.7 ± 1% | activity at 1 mg/kg (DPP-4; [4]): 16 ± 1.2% | activity at 1 mg/kg (DPP-4; [5]): 19.5 ± 1.8%
Structure (SMILES): Cc1noc(-c2ccn3c4c(nc3c2)C[C@H](c2cc(F)c(F)cc2F)[C@@H](N)C4)n1 [Example 6, (7R,8S)-3-(3-Methyl-1,2,4-oxadiazol-5-yl)-7-(2,4,5-trifluorophenyl)-6,7,8,9-tetrahydrobenzo[4,5]imidazo[1,2-a]pyridin-8-amine]

IC50 (Recombinant human DPP-IV): 3 nM | activity at 1 mg/kg (DPP-4; Table 3, mice plasma, 1 h after dosing): 9 ± 1.4% | activity at 1 mg/kg (DPP-4; Table 3, mice plasma, 2 h after dosing): 11.5 ± 1.1% | activity at 1 mg/kg (DPP-4; Table 3, mice plasma, 4 h after dosing): 10.9 ± 2.8% | activity at 1 mg/kg (DPP-4; Table 3, mice plasma, 6 h after dosing): 11.5 ± 0.5% | activity at 1 mg/kg (DPP-4; Table 3, mice plasma, 9 h after dosing): 10 ± 1.3% | activity at 1 mg/kg (DPP-4; Table 3, mice plasma, 12 h after dosing): 11 ± 2% | activity at 1 mg/kg (DPP-4; Table 3, mice plasma, 24 h after dosing): 14.5 ± 2.2% | activity at 1 mg/kg (DPP-4; [1]): 9 ± 1.4% | activity at 1 mg/kg (DPP-4; [2]): 11.5 ± 1.1% | activity at 1 mg/kg (DPP-4; [3]): 10.9 ± 2.8% | activity at 1 mg/kg (DPP-4; [4]): 11.5 ± 0.5% | activity at 1 mg/kg (DPP-4; [5]): 10 ± 1.3% | activity at 1 mg/kg (DPP-4; Table 4 Test 1, mice plasma, 12 h after dosing): 11 ± 2.2% | activity at 1 mg/kg (DPP-4; Table 4 Test 1, mice plasma, 24 h after dosing): 14.5 ± 2.2%
Structure (SMILES): Cn1nnc(-c2ccn3c4c(nc3c2)C[C@H](c2cc(F)c(F)cc2F)[C@@H](N)C4)n1 [Example 11, (7R,8S)-3-(2-methyl-2H-tetrazol-5-yl)-7-(2,4,5-trifluorophenyl)-6,7,8,9-tetrahydrobenzo[4,5]imidazo[1,2-a]pyridin-8-amine]
